Laboratory results reported in patent US20100003228A1, “T-CELL VACCINE” (priority 2006, published 2010).
Where no end group is shown, it is not given here.

Tested on: myelin reactive T cells in PBMCs
Test: EAA with positivity by Variance Evaluation Method or CPM Variance Method (clinical trials)
Format: cell-based, human
Conditions: clinical trial population, RR-MS or CIS subjects
Excerpt: The predetermined value may also be calculated using a Variance Evaluation Method as follows: • 1. EAAs may be run on a given patient population (minimum of 120 assays from 120 unique subjects) • 2. A “negative population” may be created by averaging all SI values<2.5 • 3. The Standard Deviation (SD) may be calculated for each peptide • 4. The following for each peptide may be then be calculated: • a. Average+1SD • b. Average+2SD • c. Average+3SD • 5. The following SIs may be considered above the predetermined value: • a. SI greater than or equal to the average+3SD • b. Any SI greater than or equal to 2.5
The predetermined value may also be evaluated using a Counts per Minute (CPM) Variance Method. This algorithm may set a comprehensive cutoff for all peptides within a given assay. It may be calculated as follows: • 1. EAAs may be run and the CPM for all control (media only, no antigen) wells averaged. • 2. The SD for CPM of the control wells may then be calculated. • 3. The following may then be calculated for the control wells: • a. Average+1SD • b. Average+2SD • c. Average+3SD • 4. Any peptide with an average CPM greater than or equal to the average+3SD of the control wells may be considered above the predetermined value.
Any peptide, either analyzed in an individual well or as averaged over wells run in triplicate, with an SI≧2.5, an SI≧average+3SD by the Variance Evaluation Method, or an SI≧average+3SD by the CPM variance method may be considered above the predetermined value, which may indicate a T cell(s) positive for reactivity to a peptide.
The peptides of Example 3 have been tested in 429 EAAs in clinical trials as follows. […] Pre-Vaccine EAAs have 158 positive out of 387 assays (40.8%), with Relapse Remitting MS patients (RRMS) showing 150 positive of 368 assays (40.8%), and Clinically Isolated Syndrome (CIS) patients showing 8 positive of 19 assays (42.1%).
Over the course of 6 months a study was conducted with 120 subjects meeting the criteria for the clinical trial.
The above mentioned population of subjects was evaluated by EAA using the Variance Evaluation Method and CPM Variance Method as described above, and deemed eligible for vaccine production. Of the 120 attempts to manufacture vaccine, there were 2 shipping failures (blood was not received within our stated criteria), 1 culture was lost to contamination and 5 samples arrived with low cell volume/yield. Of the remaining 112 subjects, vaccine was successfully generated in 89 subjects, with 22 still in production (98.9% of eligible samples, 92.5% of all samples completed). From this, a positive EAA was deemed predictive of the ability to manufacture a vaccine to therapeutic dose by methods disclosed herein.

| Substance | # of Subjects (frequency of identification) | % of Subjects (frequency of identification) |
| --- | --- | --- |
| MOGm23: mix of MOG 45 and MOG 46 (chain 1 CWKITLFVIVPVLGPL; chain 2 TLFVIVPVLGPLVALI) | 20 | 16.8% |
| MOGm22: mix of MOG 43 and MOG 44 (chain 1 DPHFLRVPCWKITLFV; chain 2 LRVPCWKITLFVIVPV) | 2 | 1.7% |
| MOGm2: mix of MOG 3 and MOG 4 (chain 1 RHPIRALVGDEVELPC; chain 2 RALVGDEVELPCRISP) | 6 | 5.0% |
| MOGm21: mix of MOG 41 and MOG 42 (chain 1 IENLHRTFDPHFLRVP; chain 2 HRTFDPHFLRVPCWKI) | 40 | 33.6% |
| PLPm6: mix of PLP 11 and PLP 12 (chain 1 TGTEKLIETYFSKNYQ; chain 2 KLIETYFSKNYQDYEY) | 4 | 3.4% |
| PLPm32: mix of PLP 63 and PLP 64 (chain 1 ATLVSLLTFMIAATYN; chain 2 SLLTFMIAATYNFAVL) | 12 | 10.1% |
| PLPm24: mix of PLP 47 and PLP 48 (chain 1 QSIAFPSKTSASIGSL; chain 2 FPSKTSASIGSLCADA) | 7 | 5.9% |
| PLPm13: mix of PLP 25 and PLP 26 (chain 1 VRQIFGDYKTTICGKG; chain 2 FGDYKTTICGKGLSAT) | 3 | 2.5% |
| PLPm19: mix of PLP 37 and PLP 38 (chain 1 WLGHPDKFVGITYALT; chain 2 PDKFVGITYALTVVWL) | 11 | 9.2% |
| MOGm26: mix of MOG 51 and MOG 52 (chain 1 WLHRRLAGQFLEELRN; chain 2 RLAGQFLEELRNPF) | 9 | 7.6% |
| MOGm5: mix of MOG 9 and MOG 10 (chain 1 TGMEVGWYRPPFSRVV; chain 2 VGWYRPPFSRVVHLYR) | 8 | 6.7% |
| PLPm4: mix of PLP 7 and PLP 8 (chain 1 CFFGVALFCGCGHEAL; chain 2 VALFCGCGHEALTGTE) | 26 | 21.8% |
| PLPm11: mix of PLP 21 and PLP 22 (chain 1 LYGALLLAEGFYTTGA; chain 2 LLLAEGFYTTGAVRQI) | 4 | 3.4% |
| PLPm22: mix of PLP 43 and PLP 44 (chain 1 CSAVPVYIYFNTWTTC; chain 2 PVYIYFNTWTTCQSIA) | 2 | 1.7% |
| MOGm24: mix of MOG 47 and MOG 48 (chain 1 IVPVLGPLVALIICYN; chain 2 LGPLVALIICYNWLHR) | 15 | 12.6% |
| MOGm19: mix of MOG 37 and MOG 38 (chain 1 VFLCLQYRLRGKLRAE; chain 2 LQYRLRGKLRAEIENL) | 6 | 5.0% |
| MOGm3: mix of MOG 5 and MOG 6 (chain 1 GDEVELPCRISPGKNA; chain 2 ELPCRISPGKNATGME) | 4 | 3.4% |
| MOGm20: mix of MOG 39 and MOG 40 (chain 1 LRGKLRAEIENLHRTF; chain 2 LRAEIENLHRTFDPHF) | 1 | 0.8% |
| FAVLKLMGRGTKF [PLP67] | 5 | 4.2% |
| PLPm25: mix of PLP 49 and PLP 50 (chain 1 TSASIGSLCADARMYG; chain 2 IGSLCADARMYGVLPW) | 3 | 2.5% |
| MOGm7: mix of MOG 13 and MOG 14 (chain 1 HLYRNGKDQDGDQAPE; chain 2 NGKDQDGDQAPEYRGR) | 5 | 4.2% |
| PLPm12: mix of PLP 23 and PLP 24 (chain 1 EGFYTTGAVRQIFGDY; chain 2 TTGAVRQIFGDYKTTI) | 1 | 0.8% |
| MOGm4: mix of MOG 7 and MOG 8 (chain 1 RISPGKNATGMEVGWY; chain 2 GKNATXMEVGWYRPPF; X not resolved here; also: mixture of MOG 7 and MOG 8) | 3 | 2.5% |
